{"source": "paper PMC8802628", "about": "“Selective activation of PFKL suppresses the phagocytic oxidative burst” (Cell, 2021)", "key": {"GSDMD": {"target": "T1, GSDMD (Homo sapiens, UniProt P57764)", "T1 sequence (P57764 1-484)": "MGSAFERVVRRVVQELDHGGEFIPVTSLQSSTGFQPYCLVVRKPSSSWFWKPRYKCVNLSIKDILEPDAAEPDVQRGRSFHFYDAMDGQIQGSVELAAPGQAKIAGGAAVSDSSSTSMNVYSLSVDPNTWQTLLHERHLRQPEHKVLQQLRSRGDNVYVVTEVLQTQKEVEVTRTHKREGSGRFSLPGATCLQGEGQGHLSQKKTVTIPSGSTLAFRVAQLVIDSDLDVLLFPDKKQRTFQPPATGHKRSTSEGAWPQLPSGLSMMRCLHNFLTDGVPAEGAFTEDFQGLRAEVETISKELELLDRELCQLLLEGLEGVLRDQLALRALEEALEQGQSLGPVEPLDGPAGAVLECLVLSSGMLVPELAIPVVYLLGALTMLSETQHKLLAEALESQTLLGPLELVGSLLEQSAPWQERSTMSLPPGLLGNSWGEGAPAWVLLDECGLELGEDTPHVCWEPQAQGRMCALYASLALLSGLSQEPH", "assay": "TR-FRET liposome cargo release (GSDMD pore formation)", "format": "biochemical", "conditions": "10 μM", "description": "GSDMD-dependent liposome cargo release was conducted by Confluence Discovery Technologies with modifications to the procedure described previously ([Aglietti et al., 2016]). Briefly, liposomes with an encapsulated cargo of europium-chelate conjugated biotin were formed from a lipid mixture of DOPC:DOPE (1:1). 0.15 mg/mL of cargo-loaded liposomes were mixed with 0.3 μM of recombinant GSDMD and incubated with 10 μM LDC7559, 10 μM disulfiram or DMSO vehicle. 0.15 μM caspase-4 and 50 nM streptavidin-Alexa Fluor 647 were added and TR-FRET was read over 1 h using a PHERAstar FSX Microplate Reader (BMG Labtech) equipped with a TR-FRET module."}, "PMNs [1]": {"system": "PMNs", "assay": "ROS detection assay (ROS-Glo) in neutrophils", "format": "cell-based, human", "description": "ROS were measured using the ROS-Glo bioluminescent assay (Promega) for the direct detection of H2O2. Briefly, neutrophils (2 × 10^4) were plated in white 96-well plates (Greiner) in high glucose DMEM medium. Cells were cultured with DMSO vehicle, 0.5 μM NA-11, 5 μM LDC7559, 100 μM apocynin, or 200 μM thionicotinamide for 30 min, and then stimulated with 50 nM PMA or treated with 10 μg/mL zymosan beads, pre-opsonized in 20% serum for 30 min. Luminescence, after the addition of H2O2 substrate solution of 20 min, and then ROS-Glo detection solution for 20 min, was recorded on a plate reader (Envision)."}, "PMNs [2]": {"system": "PMNs", "assay": "NADPH/NADP+ detection assay in neutrophils", "format": "cell-based, human", "conditions": "pretreatment, PMA-activated neutrophils", "description": "The ratio of NADPH/NADP^+ (or NADH/NAD^+) was calculated after measuring the individual concentrations of NADPH and NADP^+ (or NADH and NAD^+) with NADP/NADPH-Glo (or NAD/NADH-Glo) assays (Promega). […] Cells were lysed in plates by addition of 1% dodecyltrimethylammonium bromide (DTAB). To measure NADPH, half of the samples was heated at 60 °C for 30 min. The other half was treated with HCl before heating to 60°C, to measure NADP^+. All samples were neutralized before adding luciferase detection reagent, then incubated for 1 h with gentle shaking. Luminescence was recorded on a plate reader (Envision)."}, "[3]": {"system": "human bronchial epithelial cells (HBECs)", "assay": "Epithelial barrier tissue damage assay (FITC-dextran)", "format": "cell-based", "conditions": "PMA-activated neutrophils on HBECs", "description": "Human bronchial epithelial cells (HBECs) (4 × 10^4 in […] complete PneumaCult-Ex plus medium) were added to a HTS Transwell-96 permeable support plate (polyester membrane with a 0.4 μm pores) and immersed in receiver plates containing 150 μL of complete PneumaCult-Ex plus medium for 3 days. The medium on confluent monolayers was then replaced with RPMI medium containing neutrophils (4 × 10^4) in RPMI buffer that were previously treated with 5 μM NA-11, 100 μM apocynin, 5 μM NA-4, or DMSO vehicle and then activated with 100 nM PMA. The transwell plate was cultured in a new receiver plate containing 150 μL Hank’s balanced salt solution (HBSS) for 2 h. 10 μL of DMEM supplemented with 5% FBS and 2 mM L-glutamine were added to each well and the plate was incubated for additional 18 h. To measure the permeability of the epithelial barrier, FITC-dextran (200 μg/mL) and DNase-1 (22 Units/mL) were added to the apical side for 1 h. FITC-dextran in the receiver plate was measured (ex: 494 em: 521)."}, "E. coli": {"system": "E. coli", "assay": "Phagocytosis assay: E. coli C.F.U. recovered from PMNs", "format": "cell-based, human", "conditions": "neutrophils pretreated 30 min", "description": "Neutrophils (1 × 10^6) were cultured in 6-well tissue in RPMI medium containing DMSO vehicle, 0.5 μM NA-11, 0.5 μM NA-4, 100 μM Apocynin or 100 μM thionicotinamide (TN) for 30 min. E. coli grown in LB broth overnight (2 mL) were opsonized with human serum (1 mL pooled from three donors) for 1 h at room temperature. Opsonized bacteria were washed with PBS, resuspended in LB broth to an OD600of 0.1 and then added to cultured neutrophils at an MOI of 1 for 30 min. Cells were washed with medium three times and then cultured with 300 μg/mL gentamicin for 2 h to kill any extracellular bacteria. Cells were then washed again, twice with medium and once with PBS. To release phagocytosed bacteria, neutrophils were lysed in 0.05% saponin in PBS. Lysates were passed through a 25’ gauge needed several times and the number of viable phagocytosed bacteria was determined by colony counting."}, "PFKL [4]": {"target": "T2, PFKL (Homo sapiens, UniProt P17858)", "T2 construct": "made in house; host or cells: Sf9 insect cells (baculovirus, Bac-to-Bac)", "T2 sequence (P17858 1-780)": "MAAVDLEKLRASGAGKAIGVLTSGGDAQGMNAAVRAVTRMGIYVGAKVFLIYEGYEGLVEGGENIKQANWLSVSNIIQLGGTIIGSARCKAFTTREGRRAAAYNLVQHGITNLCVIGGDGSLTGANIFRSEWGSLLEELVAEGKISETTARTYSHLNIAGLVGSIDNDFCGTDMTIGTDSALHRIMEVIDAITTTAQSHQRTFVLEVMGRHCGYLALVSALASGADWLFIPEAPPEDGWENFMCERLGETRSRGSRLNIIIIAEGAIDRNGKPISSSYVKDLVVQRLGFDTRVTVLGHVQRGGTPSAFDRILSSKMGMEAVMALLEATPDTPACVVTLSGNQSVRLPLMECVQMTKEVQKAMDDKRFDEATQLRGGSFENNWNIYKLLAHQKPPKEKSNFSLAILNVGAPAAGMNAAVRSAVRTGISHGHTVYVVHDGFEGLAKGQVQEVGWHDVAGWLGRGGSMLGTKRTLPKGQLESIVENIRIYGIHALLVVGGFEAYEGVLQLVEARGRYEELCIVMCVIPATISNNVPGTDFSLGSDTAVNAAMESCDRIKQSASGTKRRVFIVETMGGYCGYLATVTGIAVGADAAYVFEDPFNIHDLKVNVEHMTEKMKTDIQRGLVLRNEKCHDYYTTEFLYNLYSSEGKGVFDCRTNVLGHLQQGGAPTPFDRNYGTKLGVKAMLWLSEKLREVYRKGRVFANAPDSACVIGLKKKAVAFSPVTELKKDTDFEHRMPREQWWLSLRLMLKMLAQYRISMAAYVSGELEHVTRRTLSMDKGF", "assay": "Recombinant PFKL activity assay (relief of ATP inhibition)", "format": "biochemical", "conditions": "3.1 mM ATP", "text": "Recombinant N-terminal His-tagged human PFKL (NP_002617), PFKM (NP_000280), and PFKP (NM_002627.4) were generated as described ([Webb et al., 2015], [2017]). Point mutants of PFK1 were generated using the QuikChange Lightning kit (Aligent).\nHis-tagged PFK1 was expressed and purified as described with slight modifications ([Webb et al., 2015], [2017]). Briefly, baculovirus was generated using the Bac-to-Bac Expression system (Invitrogen). PFK1 was expressed in 2-5 × 10^6 sf9 cells at a multiplicity of infection of two for 48 h. Cells were lysed in 20 mM HEPES, pH 7.5, 80 mM potassium phosphate, 1 mM 2-mercapentoethanol, 10% glycerol, 10 mM imidazole, and EDTA-free Protease Inhibitor Cocktail (Abcam) with a Dounce homogenizer. The soluble lysate was incubated with HisPur cobalt resin (ThermoFisher Scientific). The resin was washed with 5 bead volumes lysis buffer, 10 bead volumes lysis buffer containing 2 M NaCl, and 5 further bead volumes lysis buffer. PFK1 was eluted in lysis buffer containing 100 mM imidazole. Fractions containing protein were pooled, passed over a desalting column equilibrated in freezing buffer [20 mM HEPES pH 7.5, 1 mM DTT, 500 μM ammonium sulfate, 5% glycerol, 1 mM ATP, and 100 μM EDTA] and concentrated using an Amicon Ultracel-30K Centrifugal Filter Unit (MilliporeSigma). Protein was quantified using a Bradford Protein Assay kit (ThermoFisher Scientific), and aliquotes frozen in liquid nitrogen for storage at −80°C.\nPFK1 activity was determined using the rate of FBP production via an auxiliary enzyme assay adapted to a 96-well format ([Brüser et al., 2012]; [Webb et al., 2015]). The auxiliary enzymes aldolase, triosephosphate isomerase, and glycerol phosphate dehydrogenase were purchased from MilliporeSigma as ammonium sulfate slurries and desalted using an Amicon Ultracel-10K Centrifugal Filter Unit. For assays containing FBP, the rate of ADP production was determined using the auxiliary enzymes pyruvate kinase (PK) and lactate dehydrogenase (LDH) (MilliporeSigma) in a buffer containing 250 μM phosphoenolpyruvic acid, […] NADH, 50 mM HEPES pH 7.5, 100 mM KCl, 1 mM DTT, and effector concentrations as described in the text. The temperature was equilibrated to 25°C for 5 min before initiating the reaction 10 mM MgCl2. Absorbance at 340 nm was measured using a Varioskan LUX Multimode microplate reader (ThermoFisher). Kinetic parameters were generated by nonlinear regression analysis using Prism (GraphPad Software) and are the mean of a minimum of three measurements from two independent preparations of protein. One unit of activity was defined as the amount of enzyme that catalyzed the formation of 1 μmol of fructose 1,6-bisphosphate per min at 25°C. Assays for PFKM were performed at pH 7.0 due to the pH-dependence of ATP inhibition ([Trivedi and Danforth, 1966])."}, "[5]": {"system": "human peripheral blood neutrophils", "assay": "NETosis assay in human neutrophils (SYTOX Green, DNA area)", "format": "cell-based", "conditions": "PMA; SAR analogs compared to LDC7559", "description": "Freshly purified neutrophils were plated at 6 × 10^3 cells/well in glass bottom 96-well plates (SensoPlate, Greiner Bio-One 82050-792) in the RPMI medium described above. Cells were pretreated with DMSO vehicle, 0.5 μM NA-11, 100 μM apocynin, 0.5 μM and 5 μM PALP, or 0.5 μM and 5 μM LDC7559 for 30 min, and then stimulated with 50 nM PMA, 1 μM f-MLP, 5 μg/mL cholesterol crystals, 10 μg/mL LPS, 25 μM nigericin, or 25 μM calcymicin (A23187) for 3 h (except in Figures S1A, 6A and S7C, where cells were stimulated for 4 h). Cells were fixed and permeabilized in 2.5% paraformaldehyde (PFA) and 0.02% Triton X-100 in PBS for 30 min. For quantification of NETosis, cells were stained with 150 nM SYTOX Green and imaged in a KEYENCE Fluorescence Microscope (KEYENCE, ZB-X800E) at 10 x magnification. For immunolabeling, fixed cells were blocked with 2% BSA for 1 h, and then stained with anti-CitH3 and anti-MPO antibodies at a dilution of 1/200 in 1% BSA in PBS. Images were taken at 60 x magnification using an ImageXpress Micro Confocal high-content imaging system (Molecular Devices).\nSemi-automated analysis of both phase and fluorescence images of SYTOX Green-stained neutrophils used a specialized MATLAB algorithm. Total cells were counted by scoring phase standard deviation and radial symmetry. NETosis was classified in cells by measuring the DNA area in the fluorescence image and comparing with a select internal training set for each experiment. Unstimulated cells and PMA-stimulated, […] cells served as negative controls. PMA-stimulated cells served as a positive control. NET-forming cells are presented as a percentage of total cells."}, "PFKL [6]": {"target": "T2, PFKL", "assay": "Thermal inactivation assay of PFKL", "format": "biochemical", "conditions": "35°C; 200 μM FBP, 200 nM NA-11", "description": "Thermal inactivation assays were performed as previously described for PFKP, with modifications to account for the decreased stability of PFKL ([Sánchez-Martínez et al., 2000]). PFKL was diluted to 10 ng/mL, with a final buffer composition of 53.3 mM HEPES, 100 mM KCl, 0.167 mM DTT, 83.3 μM ammonium sulfate, 0.83% glycerol, 0.170 mM ATP, and 16.7 mM EDTA. Samples were incubated at 35°C. At the times indicated, samples were removed and residual PFK1 activity measured using the PK/LDH auxiliary enzyme assay described above with 125 μM ATP and 5 mM F6P. To determine if small molecule ligands altered PFKL stability, 200 μM FBP and 200 nM NA-11 were added."}}, "data": [{"molecule": "CCN(CC)C(=S)SSC(=S)N(CC)CC", "note": "[disulfiram]", "values": [{"measurement": "liposome permeabilization by GSDMD pore-forming fragment", "setting": "GSDMD", "result": "prevented liposome permeabilization"}]}, {"molecule": "COc1cc(C(C)=O)ccc1O", "note": "[apocynin, reference compound]", "values": [{"measurement": "PMA-induced ROS production", "setting": "PMNs [1]; 50 nM PMA", "result": "prevented"}, {"measurement": "ratio of NADPH/NADP+", "setting": "PMNs [2]", "result": "roughly twice that of untreated cells"}, {"measurement": "protection of epithelial layer from neutrophil-induced oxidative damage", "setting": "[3]", "result": "protected the epithelial layer"}, {"measurement": "killing of phagocytosed bacteria (bacterial colonies recovered)", "setting": "E. coli", "result": "less efficient killers of phagocytosed bacteria"}]}, {"molecule": "COc1ccccc1-c1cc2n(n1)Cc1ccc(N)cc1OC2", "note": "[NA-4]", "values": [{"measurement": "ROS production during phagocytosis of opsonized zymosan", "setting": "PMNs [1]; over 2 h", "result": "did not suppress ROS production"}, {"measurement": "activation of PFKL", "setting": "PFKL [4]", "result": "did not activate PFKL"}, {"measurement": "inhibition of PMA-induced NETosis", "setting": "[5]", "result": "no inhibitor activity"}, {"measurement": "protection of epithelial layer from neutrophil-induced oxidative damage", "setting": "[3]", "result": "did not"}]}, {"molecule": "O=C(COP(=O)(O)O)[C@@H](O)[C@H](O)[C@H](O)COP(=O)(O)O", "note": "[FBP, fructose 1,6-bisphosphate]", "values": [{"measurement": "protection of PFKL from thermal inactivation", "setting": "PFKL [6]", "result": "protected PFKL from thermal inactivation"}]}]}
